Measurements published in patent US20240344103A1, “IN VITRO MODELS FOR ESTIMATING DRUG DOSAGE” (Hennepin Healthcare Research Institute, priority 2021, published 2024).
Entries after “also recorded” stand apart in the source; their conditions may differ. Like-named read-outs stand apart in the source and are kept apart here.

How the values were obtained:
Gut Microbiota = conditions: cited from earlier work
[1] = 12-hour MPA pharmacokinetic profile in kidney transplant patients taking MMF; assay type: in vivo, human; conditions: five kidney transplant participants on MMF
Protocol: The following example used a stool sample of a kidney transplant patient who was on a steady state dose of 1 gram of mycophenolate mofetil (MMF) twice a day (FIG. 1). This patient underwent intensive pharmacokinetic sampling over 12 hours to assess enterohepatic recirculation (EHR) carefully and accurately. Once participants reach a steady state dose between days 15-45 post-transplant, fourteen blood samples were obtained at the time the morning MMF does was administered and at 30 minutes, one hour, two hours, three hours, four hours, five hours, six hours, seven hours, eight hours, nine hours, ten hours, 11 hours, and 12 hours following the morning MMF dose. The sampling strategy assured capture of the secondary peak and EHR characteristics.
Five kidney transplant recipients taking MMF and tacrolimus as maintenance immunosuppression had their six-hour MPA levels assessed in the in vitro assay exposing microbiome to MPAG (FIG. 5). These patients also underwent an extensive 12-hour MPA pharmacokinetic (PK) profile (FIG. 6), and the stool samples were collected at the time of the PK profile. The percent EHR in these kidney transplant recipients was defined as [MPA AUC6-12 hour]/[AUC0-12 hour]×100 as a measure of their in vivo EHR. The correlation coefficient between the six-hour MPA level from the in vitro model with percentage EHR was 0.82 (95% CI—0.21 to 0.98, P=0.08).

stool microbiota [2] = experiment: In vitro anaerobic culture of patient stool microbiome with MPA or MPAG, HPLC-MS/MS of supernatant; assay type: in vitro ADME, human
Protocol: A human microbiome sample from stool was collected from a patient between days 15-45 post-transplant, during their 12-hour pharmacokinetic visit. Prior to the initiation of the culture of microbiome stool sample, in the MPA arm of the experiment, a 1 mg/mL stock solution of MPA was diluted to […] in thirteen anaerobic culture tubes by adding 0.7 mL of the stock MPA solution to 6.3 mL of YCFA (Yeast extract-Casein hydrolysate-fatty acids) medium broth. Likewise, for the MPAG arm of the experiment, a […] stock solution of MPAG was diluted to […] in thirteen anaerobic culture tubes by adding 0.7 mL of the stock MPAG solution to 6.3 mL of YCFA (Yeast extract-Casein hydrolysate-fatty acids) medium broth.
Stool aliquots of ˜0.5 g were incubated in separate YCFA tubes containing MPA or MPAG for six hours, 24 hours, or 48 hours in separate tubes, at 37° C. under anaerobic conditions (FIG. 2). All aliquots were collected at each timepoint in triplicate. Aliquots were also collected from MPA and MPAG tubes without any stool samples at zero, six hours, 24 hours, and 48 hours to serve as controls for this experiment.
After incubation, samples were […] at 16,000×g for 10 minutes, and the supernatant was collected and stored at −80° C. prior to high performance liquid chromatography-tandem mass spectrometry (HPLC-MS/MS) analysis. The supernatant was assessed for the presence and concentration of total MPA and MPAG using a validated mass spectrometry assay. Total MPA and MPAG concentration were determined based on certified analytical reference standards of […] of MPA and MPAG. These analytical reference standards were used as internal standards during the mass spectrometry assay.

stool microbiota [3] = experiment: as above; assay type: in vitro ADME, human; conditions: stool frozen at −80° C. for mean 312 days, thawed at 4° C. overnight, assay at 37° C.; six and 24 hours
[4] = effect of gut microbiome on the compound

Row | Compound | Gut Microbiota Modification (Gut Microbiota) | Effect of microbial modification (Gut Microbiota; [4]) | also measured
1 | NC(=O)c1cc(N2CC2)c([N+](=O)[O-])cc1[N+](=O)[O-] [CB1954] | Improved efficacy | Activation [7] | 
2 | Nc1nc(Cl)nc2c1ncn2[C@H]1C[C@H](O)[C@@H](CO)O1 [Cladribine] | Inhibited efficacy | Inactivation[7] | 
3 | O=C(O)Cc1ccccc1Nc1c(Cl)cccc1Cl [Diclofenac] |  | Toxicity [2, 3] | 
4 | Nc1nc(F)nc2c1ncn2[C@@H]1O[C@H](COP(=O)(O)O)[C@@H](O)[C@@H]1O [Fludarabine de phosphate] | Improved efficacy | Activation [7] | 
5 | Nc1ccn([C@@H]2O[C@H](CO)[C@@H](O)C2(F)F)c(=O)n1 [Gemcitabine] | Inhibited efficacy | Inactivation[7] | 
6 | CCc1c2c(nc3ccc(OC(=O)N4CCC(N5CCCCC5)CC4)cc13)-c1cc3c(c(=O)n1C2)COC(=O)[C@]3(O)CC [Irinotecan] |  | Toxicity [1, 2] | 
7 | COc1c(C)c2c(c(O)c1C/C=C(\C)CCC(=O)O)C(=O)OC2 [MPA, mycophenolic acid] |  |  | % EHR (MPA AUC6-12 hour/AUC0-12 hour×100), mean [1]: 46%; % EHR (MPA AUC6-12 hour/AUC0-12 hour×100), range [1]: 41-60%; mean MPA trough ([1]; SD ±1.66): 3.5 mg/L; mean dose normalized MPA AUC0-12 ([1]; ±0.02): 0.07 mg·h/L; MPA concentration after incubation with stool bacteria compared to control samples (stool microbiota [2]; MPA arm, one kidney transplant patient stool, YCFA, 37° C., anaerobic, six, 24 and 48 hours, controls without stool): did not change; also recorded: no difference was detected; MPA concentration relative to amount expected from full MPAG conversion (stool microbiota [2]; MPAG arm, one patient stool, 24 and 48 hours): higher than the amount expected if all MPAG is converted to MPA; MPA concentration in MPAG tubes incubated with stool microbiome samples (stool microbiota [2]; MPAG arm, starting at six hours, upward trend at 24 and 48 hours): increase; Release of MPA bioaccumulated in microbiome cells on addition of MPAG (stool microbiota [2]; in vitro assay, MPAG substrate added): led to the release of MPA that had accumulated inside the cells; also recorded: promotes the release of bioaccumulated MPA
8 | COc1c(C)c2c(c(O[C@@H]3O[C@H](C(=O)O)[C@@H](O)[C@H](O)[C@H]3O)c1C/C=C(\C)CCC(=O)O)C(=O)OC2 [MPAG, mycophenolic acid glucuronide] |  |  | MPAG to MPA conversion in repeat assay (stool microbiota [3]): showed ability of the stool microbiome sample to metabolism MPAG to MPA as before; MPAG concentration in the MPA tubes incubated with stool microbiome samples (stool microbiota [2]; MPA arm, MPA to MPAG conversion, six, 24, 48 hours): no detectable concentrations; MPAG concentration in MPAG tubes incubated with stool microbiome samples (stool microbiota [2]; MPAG arm, one patient stool, anaerobic, six hours post incubation): rapid metabolism; also recorded: rapid decrease; MPAG concentration in control aliquots (stool microbiota [2]; MPAG in YCFA without stool, zero, six, 24, 48 hours): remained stable; MPAG to MPA conversion by gut microbiota (stool microbiota [2]; stool of five kidney transplant patients, YCFA, anaerobic, first six hours): Rapid metabolism; also recorded: high MPAG to MPA conversion
9 | CN(C)C(=N)N=C(N)N [Metformin] |  | Activation [2, 11] | 
10 | COc1c(C)c2c(c(O)c1C/C=C(\C)CCC(=O)OCCN1CCOCC1)C(=O)OC2 [Mycophenolate Mofetil (MMF), mycophenolate mofetil] |  | Toxicity [4-6] | 
11 | CC1=C(CC(=O)O)c2cc(F)ccc2/C1=C\c1ccc([S+](C)[O-])cc1 (stereo not shown) [Sulindac] |  | Toxicity [2, 4-6] | 
12 | C=CC[C@@H]1/C=C(\C)C[C@H](C)C[C@H](OC)[C@H]2O[C@@](O)(C(=O)C(=O)N3CCCC[C@H]3C(=O)O[C@H](/C(C)=C/[C@@H]3CC[C@@H](O)[C@H](OC)C3)[C@H](C)[C@@H](O)CC1=O)[C@H](C)C[C@@H]2OC [Tacrolimus] |  | Inactivation [8] | 
13 | Ipilimumab: Antil CTLA-4 human monoclonal antibody (Ab) therapeutic drug |  |  | Effect of microbial modification (Gut Microbiota): Activation [2, 10]
